According to PMC6332029, “Mimosine Dipeptide Enantiomsers: Improved Inhibitors against Melanogenesis and Cyclooxygenase” (Molecules, 2015):
Several values for one entry are separate records, joined by “and”; a condition that tells them apart may be missing. Equal entries are not always repeated. Where two headings read alike, the source gives them in different places.

What was measured:
[1] = biological target: T1, COX-1 (Ovis aries, UniProt P05979); test: Colorimetric COX (ovine) inhibitor screening assay, COX-1; format: biochemical; conditions: ovine COX-1, colorimetric kit; mean ± SE
T1 construct: purchased Cayman Chemical, Ann Arbor, Michigan, USA
T1 sequence (P05979 25-600): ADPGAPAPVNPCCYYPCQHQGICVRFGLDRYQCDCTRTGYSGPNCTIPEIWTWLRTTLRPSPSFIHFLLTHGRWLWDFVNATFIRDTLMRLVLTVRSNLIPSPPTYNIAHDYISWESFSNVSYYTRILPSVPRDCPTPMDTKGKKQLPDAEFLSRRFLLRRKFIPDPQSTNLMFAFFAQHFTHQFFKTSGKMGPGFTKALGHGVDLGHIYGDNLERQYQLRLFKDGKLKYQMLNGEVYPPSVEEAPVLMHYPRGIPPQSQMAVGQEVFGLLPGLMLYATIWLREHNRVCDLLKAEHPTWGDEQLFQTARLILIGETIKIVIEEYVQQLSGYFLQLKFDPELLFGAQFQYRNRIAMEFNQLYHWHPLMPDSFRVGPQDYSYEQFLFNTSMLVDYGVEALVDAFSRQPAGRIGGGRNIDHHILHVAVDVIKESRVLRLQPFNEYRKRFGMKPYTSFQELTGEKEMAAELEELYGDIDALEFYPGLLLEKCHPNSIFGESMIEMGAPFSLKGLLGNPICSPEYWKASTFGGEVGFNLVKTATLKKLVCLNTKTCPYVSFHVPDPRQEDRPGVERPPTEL
Protocol: (§1) Inhibition of COX activity was measured using a colorimetric COX (ovine) inhibitor screening assay kit (Cayman Chemical, Ann Arbor, Michigan, USA). First, 150 μL of assay buffer (0.1 M Tris-HCl, pH 8.0), 10 μL of heme, and 10 μL of enzyme (COX-1 or COX-2) were added to an […] 96-well microtiter plate. Immediately, 10 μL of sample was added to inhibitor wells while 10 μL of solvent or buffer was added to control and background wells, respectively. […] The mixture was shaken for a few seconds and incubated for an additional 5 min at 25 °C. The absorbance was determined at 590 nm using a microplate reader (Benchmark plus, Biorad, Herfordshire, UK). […] The corrected absorbance of all the samples and controls was calculated by subtracting the absorbance of the background wells. The percentage of inhibition was calculated as follows: Inhibition (%) = (Ao − As)/Ao × 100 (2) where Ao and As are the absorbance of the corrected control and sample, respectively.

[2] = tested on: intracellular tyrosinase in B16F10 melanoma cells; test: Intracellular tyrosinase inhibition assay; format: cell-based, Mouse; conditions: L-DOPA substrate, mean ± SE, read-out: IC50 for Cellular Tyrosinase Inhibition
Protocol: (§2) Mouse B16F10 cell line was obtained from American Type Culture Collection (Manassas, VA, USA). Cells were cultured in Dulbecco’s modified minimum essential medium (D-MEM) medium containing 10% fetal bovine serum (FBS), 1% penicillin/streptomycin in a humidified atmosphere with 5% CO2 incubator at 37 °C.
Cells were seeded in a 96-well plate at a density 5 × 10^3 cells/well and the compounds (10–500 μM) were added after 24 h treatment. Cells were incubated for 48 h, washed two times with 50 mM of ice-cold phosphate buffer (pH 6.8), lysed with 90 μL of 50 mM phosphate buffer (pH 6.8) containing 1% Triton-X, and frozen at −80 °C for 30 min. After thawing and mixing, 20 μL of 0.5% L-DOPA was added to each well. The mixture was incubated for 2 h at 37 °C and absorbance was measured at 490 nm.

[3] = biological target: mushroom tyrosinase; test: Mushroom tyrosinase inhibition microplate assay (L-tyrosine substrate); format: biochemical; conditions: L-tyrosine as substrate; mean ± SE
Protocol: (§3) A microplate assay was used to assess tyrosinase inhibition, as previously described. Samples (20 μL) with various concentrations were transferred into each well of 96-well plate, and 120 μL of 20 mM sodium phosphate buffer (pH 6.8), 20 μL of 500 U/mL mushroom tyrosinase enzyme dissolved in buffer were added. […] The absorbance was recorded at 470 nm using a microplate reader (Benchmark plus, Biorad, Herfordshire, UK). […] For the kinetic studies of selected inhibitors, we used a range of L-tyrosine concentrations for each inhibitor concentration. Preincubation and measurement times were the same as above. Lineweaver-Burk plots were used to determine the type of enzyme inhibition, and the inhibition constant Ki was determined by plotting Km/Vmax versus the inhibitor concentration. Percent inhibition was calculated using the following equation: Inhibition (%) = ([CE − Co] − [SE − So])/(CE − Co) × 100 (1) where CE is the absorbance of the control samples with enzyme, Co is the absorbance of the control samples without enzyme, SE is the absorbance of the tested sample with enzyme, and So is the absorbance of the tested sample without enzyme.

[4] = biological target: T2, COX-2 (Ovis aries, UniProt P79208); test: Colorimetric COX (ovine) inhibitor screening assay, COX-2; format: biochemical; conditions: ovine COX-2, colorimetric kit; mean ± SE
T2 sequence (P79208 17-603): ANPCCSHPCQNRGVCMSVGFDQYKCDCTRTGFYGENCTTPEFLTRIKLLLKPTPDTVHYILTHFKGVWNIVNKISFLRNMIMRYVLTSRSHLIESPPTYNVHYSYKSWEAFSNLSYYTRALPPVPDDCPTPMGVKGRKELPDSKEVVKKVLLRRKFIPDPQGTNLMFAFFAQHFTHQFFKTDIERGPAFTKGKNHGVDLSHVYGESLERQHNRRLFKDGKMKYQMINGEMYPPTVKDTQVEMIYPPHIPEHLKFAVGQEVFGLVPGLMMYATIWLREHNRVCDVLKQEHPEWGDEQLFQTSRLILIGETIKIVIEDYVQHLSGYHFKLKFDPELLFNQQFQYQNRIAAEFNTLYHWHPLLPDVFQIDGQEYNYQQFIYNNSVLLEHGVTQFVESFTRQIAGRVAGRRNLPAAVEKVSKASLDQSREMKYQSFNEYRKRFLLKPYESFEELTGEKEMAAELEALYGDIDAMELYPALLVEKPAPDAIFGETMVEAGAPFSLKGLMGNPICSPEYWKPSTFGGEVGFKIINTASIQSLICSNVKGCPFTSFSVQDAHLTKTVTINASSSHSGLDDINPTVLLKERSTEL
Protocol: as §1

[5] = tested on: COX-2; test: as above; format: biochemical; conditions: ratio of COX-1 IC50 to COX-2 IC50
Protocol: as §1

[6] = tested on: B16F10 melanoma cells; test: Determination of melanin content in B16F10 cells; format: cell-based, Mouse; conditions: read-out: IC50 for Melanin Content Inhibition
Protocol: as §2
The assay was performed following previously described procedure. Cells (5 × 10^3 cells/well) were seeded in a 96-well plate and cultured for 24 h. Compounds (10–500 μM) were added and incubated at 37 °C for 48 h. The medium was replaced by a fresh medium containing the same concentration of compound and the cells were incubated for 48 h. The medium was removed and the cells were dissolved in 100 μL of 1 N NaOH. The reaction was heated at 90 °C for 1 h. Melanin content was estimated by the absorbance at 400 nm.

[7] = tested on: mushroom tyrosinase; test: Kinetic analysis of tyrosinase inhibition (Lineweaver-Burk plots); format: biochemical; conditions: substrate L-tyrosine; for Inhibition Type: Lineweaver-Burk plots, inhibitor 0, 5, 15 μM; for Ki: plot of Km/Vmax versus inhibitor concentration, read-out: Inhibition Constant (Ki)
Protocol: Tyrosinase activity was assayed as described in the text.
as §3

[8] = tested on: mushroom tyrosinase; design: method as in doi:10.1016/S0031-9422(00)82317-1; conditions: cited from earlier work
[9] = Mus musculus, B16-F10, mean ± SE

In the case of `C[C@@H](NC(=O)[C@@H](N)Cn1ccc(=O)c(O)c1)C(=O)O` [Mi-D-Ala], the IC50 [1] is reported as 19.1 ± 1 µM, the IC50 ([2]; Mus musculus, B16-F10, 48 h) is reported as 181 ± 6.8 µM and the IC50 [3] is reported as 17.7 ± 3.1 µM. For the same compound, the IC50 [4] was 198 ± 3.7 µM, the “SI COX-1/COX-2 (selectivity index, COX-1 IC50/COX-2 IC50)” value [5] was 0.10 and the IC50 [6, 9] was 199 ± 5.2 µM.

Work on `N[C@@H](Cn1ccc(=O)c(O)c1)C(=O)N[C@H](Cc1ccccc1)C(=O)O` [Mi-D-Phe] yielded an IC50 ([2]; Mus musculus, B16-F10, 48 h) of 194 ± 6.2 µM, an IC50 [3] of 19.7 ± 0.8 µM and an IC50 [6, 9] of 168.4 ± 1.4 µM.

Compound `N[C@@H](Cn1ccc(=O)c(O)c1)C(=O)N1CCC[C@@H]1C(=O)O` [Mi-D-Pro] has an IC50 [1] of 21 ± 2 µM, an IC50 ([2]; Mus musculus, B16-F10, 48 h) of 146 ± 5.2 µM and an IC50 [3] of 17.2 ± 2.1 µM. For the same compound, the IC50 [4] was 128 ± 7.7 µM, the “SI COX-1/COX-2 (selectivity index, COX-1 IC50/COX-2 IC50)” value [5] was 0.15 and the IC50 [6, 9] was 123 ± 3 µM.

With `N[C@@H](Cn1ccc(=O)c(O)c1)C(=O)N[C@H](Cc1c[nH]c2ccccc12)C(=O)O` [Mi-D-Trp] the IC50 [1] was 26.1 ± 1.3 µM, the IC50 ([2]; Mus musculus, B16-F10, 48 h) was 150 ± 2.3 µM and the “Inhibition Type” value [7] was “competitive”. The Ki [7] was 80 µM, the IC50 [3] was 17 µM and 16.9 µM and the IC50 [4] was 27.5 ± 2.2 µM. The “SI COX-1/COX-2 (selectivity index, COX-1 IC50/COX-2 IC50)” value [5] was 0.95 and the IC50 [6, 9] was 116 ± 4.9 µM.

In the case of `CC(C)[C@@H](NC(=O)[C@@H](N)Cn1ccc(=O)c(O)c1)C(=O)O` [Mi-D-Val], the IC50 ([2]; Mus musculus, B16-F10, 48 h) is reported as 162 ± 4.1 µM, the “Inhibition Type” value [7] is reported as “competitive” and the Ki [7] is reported as 20 µM. The IC50 [3] was 10 µM and 10.3 µM and the IC50 [6, 9] was 112 ± 8.1 µM.

Work on `C[C@H](NC(=O)[C@@H](N)Cn1ccc(=O)c(O)c1)C(=O)O` [Mi-L-Ala] yielded an IC50 ([2]; Mus musculus, B16-F10, 48 h) of 172 ± 4.6 µM, an IC50 [3] of 23.1 ± 2.2 µM and an IC50 [6, 9] of 128 ± 7.4 µM.

`N[C@@H](Cn1ccc(=O)c(O)c1)C(=O)N[C@@H](Cc1ccccc1)C(=O)O` [Mi-L-Phe] showed an IC50 ([2]; Mus musculus, B16-F10, 48 h) of 179.2 ± 1.3 µM, an IC50 [3] of 24.1 ± 3.8 µM and an IC50 [6, 9] of 121 ± 8.6 µM.

With `N[C@@H](Cn1ccc(=O)c(O)c1)C(=O)N1CCC[C@H]1C(=O)O` [Mi-L-Pro] the IC50 [1] was 17.9 ± 2.1 µM, the IC50 ([2]; Mus musculus, B16-F10, 48 h) was 167 ± 7.3 µM and the “Inhibition Type” value [7] was “competitive”. The Ki [7] was 50 µM, the IC50 [3] was 13 µM and 13.1 µM and the IC50 [4] was 29.3 ± 3 µM. It also gave an IC50 [6, 9] of 110 ± 5.3 µM.

`N[C@@H](Cn1ccc(=O)c(O)c1)C(=O)N[C@@H](Cc1c[nH]c2ccccc12)C(=O)O` [Mi-L-Trp] showed an IC50 [1] of 20.4 ± 1.6 µM, an IC50 ([2]; Mus musculus, B16-F10, 48 h) of 156 ± 8.3 µM and an IC50 [3] of 19.2 ± 1.5 µM. The IC50 [4] was 19 µM and 19.3 µM and the IC50 [6, 9] was 109 ± 2.7 µM.

In the case of `CC(C)[C@H](NC(=O)[C@@H](N)Cn1ccc(=O)c(O)c1)C(=O)O` [Mi-L-Val], the IC50 [1] is reported as 24.4 ± 1.4 µM, the IC50 ([2]; Mus musculus, B16-F10, 48 h) is reported as 172 ± 6.5 µM and the “Inhibition Type” value [7] is reported as “competitive”. The Ki [7] was 30 µM, the IC50 [3] was 12 µM and 11.5 µM and the IC50 [4] was 22 µM and 21.7 µM. The “SI COX-1/COX-2 (selectivity index, COX-1 IC50/COX-2 IC50)” value [5] was 1.12 and the IC50 [6, 9] was 170 ± 7.5 µM.

In the case of `N[C@@H](Cn1ccc(=O)c(O)c1)C(=O)O` [Mimosine, β-[N-(3-hydroxy-4-oxypyridyl)]-α-aminopropionic acid], the “Inhibition type of tyrosinase” value [8] is given as “competitive”, the IC50 [1] is given as 29 µM and 28.8 µM and the IC50 ([2]; 48 h) is given as 388 ± 7.2 µM. The IC50 ([2]; Mus musculus, B16-F10, 48 h) was roughly 388 µM, the IC50 [3] was 32.4 ± 1.1 µM and the IC50 [4] was 21 µM and 20.9 µM. The “SI COX-1/COX-2 (selectivity index, COX-1 IC50/COX-2 IC50)” value [5] was 1.38, the IC50 [6, 9] was roughly 226 µM and the IC50 ([6]; mean ± SE) was 226 ± 4 µM.
